Tests used:
Type in all cases: in vivo
Raphanus sativus = test: Foliage treatment (Example 8); set-up: key: 0 indicates no effect; 5 indicates complete kill; conditions: Plant No. 32 Raphanus sativus
Experimental: (§1) Aqueous solutions of Phosalacine (Na salt) at different concentrations were applied at a rate of 1500 liters per hectare to naturally occurring plants or plants which were cultured on plates as shown in the following Table at certain stages of growth. […] One month after the foliage treatment, the inhibition of regrowth of the plants was visually investigated.

Rumex obtusifolius = test: Foliage treatment (Example 8); set-up: key: 0 indicates no effect; 5 indicates complete kill; conditions: Plant No. 14 Rumex obtusifolius
Experimental: as §1

Castanea crenata [1] = test: Foliage treatment of naturally growing weeds and brush (Example 9); set-up: key: 0 indicates no effect; 5 indicates complete kill; conditions: Plant No. 8 Castanea crenata, One month
Excerpt: (§2) Aqueous solutions of Phosalacine (Na salt) at different concentrations and 0.1% of octylphenylpolyoxy ethanol as surfactant were applied to the area where various weeds and brush were naturally growing at a rate of 1500 liter per hectare. One month after the foliage treatment, damage to weeds and brush was visually assessed on a scale of from 0 to 5 where 0 indicates no effect and 5 indicates complete kill as hereinbefore defined.

Pteridium aquilinum = test: as above; set-up: key: 0 indicates no effect; 5 indicates complete kill; conditions: Plant No. 20 Pteridium aquilinum, One month
Excerpt: as §2

Rubus palmatus = test: as above; set-up: key: 0 indicates no effect; 5 indicates complete kill; conditions: Plant No. 18 Rubus palmatus, One month
Excerpt: as §2

Smilax china = test: as above; set-up: key: 0 indicates no effect; 5 indicates complete kill; conditions: Plant No. 17 Smilax china, One month
Excerpt: as §2

Viburnum dilatatum = test: as above; set-up: key: 0 indicates no effect; 5 indicates complete kill; conditions: Plant No. 21 Viburnum dilatatum, One month
Excerpt: as §2

Zanthoxylum piperitum = test: as above; set-up: key: 0 indicates no effect; 5 indicates complete kill; conditions: Plant No. 19 Zanthoxylum piperitum, One month
Excerpt: as §2

[2] = test system: various weeds and brush (overall evaluation); test: as above; set-up: key: 0 indicates no effect; 5 indicates complete kill; conditions: OE overall evaluation, One month
Excerpt: as §2

Castanea crenata [3] = test: Foliage treatment of woody plants (Example 10); set-up: key: 0 indicates no effect; 5 indicates complete kill; conditions: Plant No. 8 Castanea crenata
Excerpt: (§3) Aqueous solutions containing Phosalacine (Na salt) at different concentrations and 0.1% of octylphenylpolyoxy ethanol as surfactant were applied at a rate of 1500 liter per hectare to woody plants of about 60-70 cm in height. 7 and 14 days after the foliage treatment, damage to the plants was visually assessed on a scale of from 0 to 5 (cf. Example 7).

Larix leptolepis = test: Foliage treatment of woody plants (Example 10); set-up: key: 0 indicates no effect; 5 indicates complete kill; conditions: Plant No. 23 Larix leptolepis
Excerpt: as §3

Picea densiflora = test: Foliage treatment of woody plants (Example 10); set-up: key: 0 indicates no effect; 5 indicates complete kill; conditions: Plant No. 22 Picea densiflora
Excerpt: as §3

Chamaecyparis obtusa = test: Foliage treatment of woody plants (Example 10); set-up: key to damage to the plants, scale 0 to 5: 0 indicates no effect; 5 indicates complete kill; conditions: CH Chamaecyparis obtusa
Excerpt: as §3

Cryptomeria japonica = test: Foliage treatment of woody plants (Example 10); set-up: key to damage to the plants, scale 0 to 5: 0 indicates no effect; 5 indicates complete kill; conditions: CP Cryptomeria japonica
Excerpt: as §3

`C[C@H](NC(=O)[C@H](C)NC(=O)[C@@H](N)CCP(C)(=O)[O-])C(=O)O.[Na+]` [SF, reference compound] was tested, and the “damage to the plants, scale 0 to 5” value (Raphanus sativus; 0.1%, 7 days) was 3, the “damage to the plants, scale 0 to 5” value (Raphanus sativus; 0.1%, 14 days) was 4 and the “damage to the plants, scale 0 to 5” value (Raphanus sativus; 0.2%, 7 days) was 4. For the same compound, the “damage to the plants, scale 0 to 5” value (Raphanus sativus; 0.2%, 14 days) was 5, the “damage to the plants, scale 0 to 5” value (Rumex obtusifolius; 0.1%, 7 days) was 3 and the “damage to the plants, scale 0 to 5” value (Rumex obtusifolius; 0.1%, 14 days) was 4. For the same compound, the “damage to the plants, scale 0 to 5” value (Rumex obtusifolius; 0.2%, 7 days) was 4, the “damage to the plants, scale 0 to 5” value (Rumex obtusifolius; 0.2%, 14 days) was 5 and the “damage to weeds and brush, scale 0 to 5” value (Castanea crenata [1]; 0.05%) was 2. For the same compound, the “damage to weeds and brush, scale 0 to 5” value (Castanea crenata [1]; 0.1%) was 4, the “damage to weeds and brush, scale 0 to 5” value (Castanea crenata [1]; 0.2%) was 5 and the “damage to weeds and brush, scale 0 to 5” value (Pteridium aquilinum; 0.05%) was 2. For the same compound, the “damage to weeds and brush, scale 0 to 5” value (Pteridium aquilinum; 0.1%) was 4, the “damage to weeds and brush, scale 0 to 5” value (Pteridium aquilinum; 0.2%) was 5 and the “damage to weeds and brush, scale 0 to 5” value (Rubus palmatus; 0.05%) was 2. The “damage to weeds and brush, scale 0 to 5” value (Rubus palmatus; 0.1%) was 4, the “damage to weeds and brush, scale 0 to 5” value (Rubus palmatus; 0.2%) was 5 and the “damage to weeds and brush, scale 0 to 5” value (Smilax china; 0.05%) was 2. The “damage to weeds and brush, scale 0 to 5” value (Smilax china; 0.1%) was 4, the “damage to weeds and brush, scale 0 to 5” value (Smilax china; 0.2%) was 5 and the “damage to weeds and brush, scale 0 to 5” value (Viburnum dilatatum; 0.05%) was 2. For the same compound, the “damage to weeds and brush, scale 0 to 5” value (Viburnum dilatatum; 0.1%) was 4, the “damage to weeds and brush, scale 0 to 5” value (Viburnum dilatatum; 0.2%) was 5 and the “damage to weeds and brush, scale 0 to 5” value (Zanthoxylum piperitum; 0.05%) was 2. For the same compound, the “damage to weeds and brush, scale 0 to 5” value (Zanthoxylum piperitum; 0.1%) was 4, the “damage to weeds and brush, scale 0 to 5” value (Zanthoxylum piperitum; 0.2%) was 5 and the “damage to weeds and brush, scale 0 to 5” value ([2]; 0.05%) was 2. The “damage to weeds and brush, scale 0 to 5” value ([2]; 0.1%) was 4, the “damage to weeds and brush, scale 0 to 5” value ([2]; 0.2%) was 5 and the “damage to the plants, scale 0 to 5” value (Castanea crenata [3]; 0.125%, 7 days) was 5. For the same compound, the “damage to the plants, scale 0 to 5” value (Castanea crenata [3]; 0.125%, 14 days) was 5, the “damage to the plants, scale 0 to 5” value (Castanea crenata [3]; 0.25%, 7 days) was 5 and the “damage to the plants, scale 0 to 5” value (Castanea crenata [3]; 0.25%, 14 days) was 5. The “damage to the plants, scale 0 to 5” value (Castanea crenata [3]; 0.5%, 7 days) was 5, the “damage to the plants, scale 0 to 5” value (Castanea crenata [3]; 0.5%, 14 days) was 5 and the “damage to the plants, scale 0 to 5” value (Larix leptolepis; 0.125%, 7 days) was 4. For the same compound, the “damage to the plants, scale 0 to 5” value (Larix leptolepis; 0.125%, 14 days) was 5, the “damage to the plants, scale 0 to 5” value (Larix leptolepis; 0.25%, 7 days) was 4 and the “damage to the plants, scale 0 to 5” value (Larix leptolepis; 0.25%, 14 days) was 5. For the same compound, the “damage to the plants, scale 0 to 5” value (Larix leptolepis; 0.5%, 7 days) was 4, the “damage to the plants, scale 0 to 5” value (Larix leptolepis; 0.5%, 14 days) was 5 and the “damage to the plants, scale 0 to 5” value (Picea densiflora; 0.125%, 7 days) was 4. The “damage to the plants, scale 0 to 5” value (Picea densiflora; 0.125%, 14 days) was 5, the “damage to the plants, scale 0 to 5” value (Picea densiflora; 0.25%, 7 days) was 4 and the “damage to the plants, scale 0 to 5” value (Picea densiflora; 0.25%, 14 days) was 5. For the same compound, the “damage to the plants, scale 0 to 5” value (Picea densiflora; 0.5%, 7 days) was 4, the “damage to the plants, scale 0 to 5” value (Picea densiflora; 0.5%, 14 days) was 5 and the “damage to the plants, scale 0 to 5” value (Chamaecyparis obtusa; 0.125%, 7 days) was 0. The “damage to the plants, scale 0 to 5” value (Chamaecyparis obtusa; 0.125%, 14 days) was 0, the “damage to the plants, scale 0 to 5” value (Chamaecyparis obtusa; 0.25%, 7 days) was 0 and the “damage to the plants, scale 0 to 5” value (Chamaecyparis obtusa; 0.25%, 14 days) was 0. For the same compound, the “damage to the plants, scale 0 to 5” value (Chamaecyparis obtusa; 0.5%, 7 days) was 0, the “damage to the plants, scale 0 to 5” value (Chamaecyparis obtusa; 0.5%, 14 days) was 0 and the “damage to the plants, scale 0 to 5” value (Cryptomeria japonica; 0.125%, 7 days) was 0. For the same compound, the “damage to the plants, scale 0 to 5” value (Cryptomeria japonica; 0.125%, 14 days) was 0, the “damage to the plants, scale 0 to 5” value (Cryptomeria japonica; 0.25%, 7 days) was 0 and the “damage to the plants, scale 0 to 5” value (Cryptomeria japonica; 0.25%, 14 days) was 1. The “damage to the plants, scale 0 to 5” value (Cryptomeria japonica; 0.5%, 7 days) was 0 and the “damage to the plants, scale 0 to 5” value (Cryptomeria japonica; 0.5%, 14 days) was 2.

Reference: patent US4613355A, “Antibiotic having herbicidal activity” (Satoshi Omura, priority 1983, dated 1986)
